Reference: ChEMBL document CHEMBL1154790, “Lorneic acids, trialkyl-substituted aromatic acids from a marine-derived actinomycete” (J Nat Prod, 2009)
The source made the active and inactive calls. The calls are words filed in the database; no cut-off is given here.

Experiments:
[1] = biological target: T1, cGMP-specific 3',5'-cyclic phosphodiesterase (Homo sapiens, UniProt O76074); experiment: Inhibition of human platelet PDE5 assessed as [3H]cGMP to [3H]GMP conversion at 10 uM pretreated 15 mins before substrate addition measured after 20 mins
[2] = biological target: T1, cGMP-specific 3',5'-cyclic phosphodiesterase; experiment: Inhibition of human platelet PDE5 assessed as [3H]cGMP to [3H]GMP conversion pretreated 15 mins before substrate addition measured after 20 mins

Row | inhibition [1] | IC50 [2] [µM] | Structure (SMILES)
1 | Active | 12.6 | CCCC/C=C/c1cc(C)ccc1/C=C/CC(=O)O [LORNEIC ACID A]
2 |  | 87.1 | CCCCCC(O)c1cc(C)ccc1/C=C/CC(=O)O (stereo not drawn) [LORNEIC ACID B]
